Measurements as given in the supplement of paper PMC10307832.

How the values were obtained:
Assay in all cases: relative viability (nuclei count vs DMSO), 5 days (fraction); higher = more cells survive
[1] = compound: COc1cc2c(Oc3ccc4[nH]c(C)cc4c3F)ncnc2cc1OCCCN1CCCC1 [Cediranib] + Cc1cc(Nc2cc(N3CCN(C)CC3)nc(Sc3ccc(NC(=O)C4CC4)cc3)n2)n[nH]1 [Tozasertib] (partner 0.1 µM)
Outline: (§1)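 Lung cancer cell lines were pin-tool dosed in 1536-well plates on the day after seeding, with either a lone drug or a fixed anchor-drug dose plus five library-drug doses (not always all listed) in √10 steps. Nuclei were counted on 4× images after 5 days. Relative viability is the ratio of treated-well to vehicle-well nuclei counts, with each value a median of duplicate plates.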

[2] = compound: Nc1ncn([C@H]2C[C@H](O)[C@@H](CO)O2)c(=O)n1 [Decitabine] + CC(C)C[C@H](NC(=O)[C@H](Cc1ccccc1)NC(=O)c1cnccn1)B(O)O [Bortezomib] (partner 0.002 µM)
Outline: as §1

[3] = compound: Nc1ncn([C@H]2C[C@H](O)[C@@H](CO)O2)c(=O)n1 [Decitabine] + C[C@@H](Oc1cc(-c2cnn(C3CCNCC3)c2)cnc1N)c1c(Cl)ccc(F)c1Cl [Crizotinib] (partner 1 µM)
Outline: as §1

[4] = compound: O=C(C[C@H]1NCCC[C@@H]1O)Cn1cnc2cc(Br)c(Cl)cc2c1=O (racemic) [Halofuginone] + O=C(CCCCCCC(=O)Nc1ccccc1)NO [Vorinostat] (partner 1 µM)
Outline: as §1

Row | Cell Line | relative viability ([1]; first compound 0.04 µM) | relative viability ([1]; first compound 0.4 µM) | relative viability ([1]; first compound 1.265 µM) | relative viability ([1]; first compound 4 µM) | relative viability ([2]; first compound 0.04 µM) | relative viability ([2]; first compound 0.1265 µM) | relative viability ([2]; first compound 0.4 µM) | relative viability ([2]; first compound 1.265 µM) | relative viability ([2]; first compound 4 µM) | relative viability ([3]; first compound 0.04 µM) | relative viability ([3]; first compound 0.1265 µM) | relative viability ([3]; first compound 0.4 µM) | relative viability ([3]; first compound 1.265 µM) | relative viability ([3]; first compound 4 µM) | relative viability ([4]; first compound 0.001 µM) | relative viability ([4]; first compound 0.003162 µM) | relative viability ([4]; first compound 0.01 µM) | relative viability ([4]; first compound 0.03162 µM) | relative viability ([4]; first compound 0.1 µM) | relative viability ([1]; first compound 0.1265 µM)
1 | NCI-H3122 | 0.393 | 0.364 | 0.53 | 0.468 | 0.973 | 0.987 | 0.968 | 0.782 | 0.725 | 0.258 | 0.251 | 0.277 | 0.346 | 0.28 | 0.924 | 1.13 | 0.938 | 1.01 | 1.06 | 
2 | PC-3 [JPC-3] | 0.886 | 0.947 | 0.891 | 0.876 |  | 0.6 | 0.458 | 0.462 | 0.389 |  | 0.728 | 0.388 | 0.536 | 0.516 | 0.84 | 0.769 | 0.693 | 0.929 | 0.683 | 0.906
3 | PC-14 | 0.711 | 0.585 | 0.61 | 0.483 | 0.35 | 0.507 | 0.369 | 0.221 | 0.168 |  | 0.57 | 0.258 | 0.27 | 0.225 | 0.803 | 0.626 | 0.646 | 0.292 | 0.0442 | 0.651
4 | RERF-LC-KJ | 0.598 | 0.469 | 0.544 | 0.464 | 1.05 | 0.931 | 0.525 | 0.824 | 0.779 | 0.812 | 0.77 | 0.245 | 0.551 | 0.561 | 0.8 | 0.675 | 0.605 | 0.718 | 0.604 | 0.535
5 | SK-LU-1 | 0.316 | 0.305 | 0.365 | 0.335 | 0.781 | 0.849 | 0.251 | 0.516 | 0.503 | 0.668 | 0.614 | 0.352 | 0.484 | 0.453 | 0.835 | 0.818 | 0.839 | 0.787 | 0.368 | 0.412
6 | SW 1573 | 0.193 | 0.136 | 0.153 | 0.18 | 0.969 | 0.895 | 0.99 | 0.575 | 0.382 | 0.627 | 0.961 | 0.724 | 0.507 | 0.358 | 1.27 |  | 0.775 | 0.601 | 0.167 | 0.179
